Reference: patent US20080262097A1, “Formulations” (priority 2005, published 2008)
Converted amounts (≈) assume the structure as drawn. Where two headings read alike, the source gives them in different places.

Key:
P. avidum ATCC 25577 = experiment: MBC assay; assay type: cell-based; settings: Cutibacterium avidum, ATCC25577
Protocol: (§1) The Propionibacterium spp organisms were cultured and maintained on Wilkins-Chalgren Anaerobe Medium (agar and broth) at pH 6.0; cultures were incubated anaerobically at 37° C. for 72 hours.
(§2) This assay, normally carried out after an MIC assay, determines the minimum concentration of a compound that is lethal to the micro-organism being tested.
(§3) These samples were then individually sub-cultured on non-selective agar medium, under the incubation conditions described above. Following incubation they were examined visually for bacterial growth.

P. granulosum NCTC 11865 = experiment: MBC assay; assay type: cell-based; settings: P. granulosum NCTC 11865 (resistance None)
Protocol: as §1, §2, §3

P. granulosum PRP-043 = experiment: MBC assay; assay type: cell-based; settings: P. granulosum PRP-043 (resistance MLS)
Protocol: as §1, §2, §3

P. granulosum PRP-044 = experiment: MBC assay; assay type: cell-based; settings: P. granulosum PRP-044 (resistance MLS)
Protocol: as §1, §2, §3

P. granulosum PRP-005 = experiment: MBC assay; assay type: cell-based; settings: P. granulosum PRP-005 (resistance MLSK)
Protocol: as §1, §2, §3

P. granulosum PRP-055 = experiment: MBC assay; assay type: cell-based; settings: P. granulosum PRP-055 (resistance None)
Protocol: as §1, §2, §3

P. acnes PRP-007 = experiment: MIC assay; assay type: cell-based, Propionibacterium acnes; settings: Cutibacterium acnes, PRP007; P. acnes PRP-007 (resistance Clin)
Protocol: as §1
(§4) This is a standard international method for quantitatively assessing the antimicrobial activity of a compound in a liquid medium. The method used a 96-well microtitre plate, capable of holding about 200 μl of liquid per well. […] The culture media were as described above for the relevant test organisms.
(§5) The wells were inoculated with a liquid suspension of freshly grown micro-organism and incubated under the conditions described above. After incubation, the microtitre plate was examined visually (with the aid of a light box) for cell pellets in and/or opaque wells, which would indicate microbial growth. The MIC value was recorded as the lowest concentration of test compound required to inhibit microbial growth, ie, the lowest concentration for which the liquid in the well remained clear.
(§6) The assays were conducted in duplicate and included both negative (culture medium only) and positive (culture medium, diluting solvent and inoculum) controls.

P. acnes PRP-003 = experiment: MIC assay; assay type: cell-based, Propionibacterium acnes; settings: Cutibacterium acnes, PRP003; P. acnes PRP-003 (resistance Tet)
Protocol: as §1, §4, §5, §6

P. acnes PRP-101 = experiment: MIC assay; assay type: cell-based, Propionibacterium acnes; settings: Cutibacterium acnes, PRP101; P. acnes PRP-101 (resistance Tet/MLS)
Protocol: as §1, §4, §5, §6

P. acnes PRP-102 = experiment: MIC assay; assay type: cell-based, Propionibacterium acnes; settings: Cutibacterium acnes, PRP102; P. acnes PRP-102 (resistance Tet/MLS)
Protocol: as §1, §4, §5, §6

P. acnes PRP-002 = experiment: MIC assay; assay type: cell-based, Propionibacterium acnes; settings: Cutibacterium acnes, PRP002; P. acnes PRP-002 (resistance Tet/MLS)
Protocol: as §1, §4, §5, §6

P. acnes PRP-004 = experiment: MIC assay; assay type: cell-based, Propionibacterium acnes; settings: Cutibacterium acnes, PRP004; P. acnes PRP-004 (resistance Tet)
Protocol: as §1, §4, §5, §6

P. acnes PRP-046 = experiment: MIC assay; assay type: cell-based, Propionibacterium acnes; settings: Cutibacterium acnes, PRP046; P. acnes PRP-046 (resistance None)
Protocol: as §1, §4, §5, §6

P. acnes PRP-068 = experiment: MIC assay; assay type: cell-based, Propionibacterium acnes; settings: Cutibacterium acnes, PRP068; P. acnes PRP-068 (resistance Ery)
Protocol: as §1, §4, §5, §6

P. acnes PRP-026 = experiment: MIC assay; assay type: cell-based, Propionibacterium acnes; settings: Cutibacterium acnes, PRP026; P. acnes PRP-026 (resistance MLS)
Protocol: as §1, §4, §5, §6

P. acnes PRP-008 = experiment: MIC assay; assay type: cell-based, Propionibacterium acnes; settings: Cutibacterium acnes, PRP008; P. acnes PRP-008 (resistance Clin)
Protocol: as §1, §4, §5, §6

P. acnes PRP-017 = experiment: MIC assay; assay type: cell-based, Propionibacterium acnes; settings: Cutibacterium acnes, PRP017; P. acnes PRP-017 (resistance MLS)
Protocol: as §1, §4, §5, §6

E faecalis ATCC 29212 = experiment: MIC assay; assay type: cell-based; settings: Enterococcus faecalis, ATCC29212
From the text: 3. Enterococcus faecalis ATCC 29212—this is a Gram-positive bacterium belonging to the genus Enterococcus. Enterococci have similar properties to streptococci, but differ in their ability to grow on bile-salt containing media such as MacConkey's Agar. Their principal habitat is the mammalian gastrointestinal tract. They cause a number of important infections including endocarditis, urinary tract infections and abscesses. In the context of skin, they are frequently isolated from wound infections. Unlike the streptococci, the enterococci have developed widespread resistance to penicillin. More recently, E. faecalis and E. faecium strains have also developed resistance to the glycopeptide antibiotics such as vancomycin. Vancomycin-Resistant Enterococci (VRE), principally vanA strains of E. faecium, now represent a serious healthcare-acquired infection hazard in the USA, Japan and Western Europe. […]
This is a standard international method for quantitatively assessing the antimicrobial activity of a compound in a liquid medium. […]
The wells were inoculated with a liquid suspension of freshly grown micro-organism and incubated under the conditions described above. […] The MIC value was recorded as the lowest concentration of test compound required to inhibit microbial growth, ie, the lowest concentration for which the liquid in the well remained clear. […]

S. aureus CPHL EMRSA 16 = experiment: MIC assay; assay type: cell-based; settings: Staphylococcus aureus
Protocol: (§7) Other staphylococcal strains were also tested, as described in Example 5 below. These included certain antibiotic resistant staphylococci, such as the methicillin resistant S. aureus (MRSA) strains EMRSA-15 and EMRSA-16, both available from the Central Public Health Laboratory (CPHL), Colindale, UK. These strains are resistant not only to all beta-lactams but also to a number of other antibiotics in clinical use, making them a serious threat to human health. They are also responsible for the majority (>95%) of hospital-acquired MRSA infections in the UK.
(§8) The staphylococci and enterococci were cultured and maintained on Mueller-Hinton Medium (agar and broth) at pH 7.2; they were incubated aerobically at 37° C. for 24 hours.
as §4, §5, §6

S. aureus CPHL EMRSA 15 = experiment: MIC assay; assay type: cell-based; settings: Staphylococcus aureus
Protocol: as §7, §8, §4, §5, §6

Compound	MBC (P. granulosum NCTC 11865)	MBC (P. granulosum PRP-043)	MBC (P. granulosum PRP-044)	MBC (P. granulosum PRP-005)	MBC (P. granulosum PRP-055)	MIC (P. acnes PRP-007)	MIC (P. acnes PRP-003)	MIC (P. acnes PRP-101)	MIC (P. acnes PRP-102)	MIC (P. acnes PRP-002)	MIC (P. acnes PRP-004)	MIC (P. acnes PRP-046)	MIC (P. acnes PRP-068)	MIC (P. acnes PRP-026)	MIC (P. acnes PRP-008)	MIC (P. acnes PRP-017)	MIC (S. aureus CPHL EMRSA 16)	MIC (S. aureus CPHL EMRSA 15)	further results
CC(C)(C)c1cc(O)ccc1O [TBHQ, t-butyl hydroquinone]	7.8 µg/mL (≈ 46.9 µM)	15.6 µg/mL (≈ 93.9 µM)	31.2 µg/mL (≈ 188 µM)	62.5 µg/mL (≈ 376 µM)	7.8 µg/mL (≈ 46.9 µM)	3.9 µg/mL (≈ 23.5 µM)	7.8 µg/mL (≈ 46.9 µM)	3.9 µg/mL (≈ 23.5 µM)	7.8 µg/mL (≈ 46.9 µM)	3.9 µg/mL (≈ 23.5 µM)	1.95 µg/mL (≈ 11.7 µM)	1.95 µg/mL (≈ 11.7 µM)	3.9 µg/mL (≈ 23.5 µM)	3.9 µg/mL (≈ 23.5 µM)	3.9 µg/mL (≈ 23.5 µM)	3.9 µg/mL (≈ 23.5 µM)	3.9 µg/mL (≈ 23.5 µM)	3.9 µg/mL (≈ 23.5 µM)	MBC (P. avidum ATCC 25577; P. avidum ATCC 25577 (resistance None), read-out: MBC): 3.9 µg/mL (≈ 23.5 µM); MIC (E faecalis ATCC 29212): 15.6 µg/mL
O=C(OOC(=O)c1ccccc1)c1ccccc1 [benzoyl peroxide]	15.6 µg/mL (≈ 64.4 µM)	62.5 µg/mL (≈ 258 µM)	31.2 µg/mL (≈ 129 µM)	15.6 µg/mL (≈ 64.4 µM)	15.6 µg/mL (≈ 64.4 µM)	31.2 µg/mL (≈ 129 µM)	31.2 µg/mL (≈ 129 µM)	15.6 µg/mL (≈ 64.4 µM)	62.5 µg/mL (≈ 258 µM)	15.6 µg/mL (≈ 64.4 µM)	7.8 µg/mL (≈ 32.2 µM)	31.2 µg/mL (≈ 129 µM)	62.5 µg/mL (≈ 258 µM)	15.6 µg/mL (≈ 64.4 µM)	31.2 µg/mL (≈ 129 µM)	31.2 µg/mL (≈ 129 µM)	125 µg/mL (≈ 516 µM)	125 µg/mL (≈ 516 µM)	MBC (P. avidum ATCC 25577): 62.5 µg/mL (≈ 258 µM); MIC (E faecalis ATCC 29212; E faecalis ATCC 29212, read-out: MIC): > 250 µg/mL
